Data reported in paper PMC6459958, “NEP-TC a rRNA Methyltransferase Involved on Somatic Embryogenesis of Tamarillo (Solanum betaceum Cav.)” (Frontiers in Plant Science, 2019).

Biological target: NEP-TC (Solanum betaceum, UniProt I1W0V3)
Test: coupled colorimetric SAM methyltransferase assay (SAH production, […] nm)
Assay type: biochemical
Settings: methyl donor; co-substrate rRNA or total RNA from non-embryogenic calli

NEP-TC, sequence (I1W0V3 1-221): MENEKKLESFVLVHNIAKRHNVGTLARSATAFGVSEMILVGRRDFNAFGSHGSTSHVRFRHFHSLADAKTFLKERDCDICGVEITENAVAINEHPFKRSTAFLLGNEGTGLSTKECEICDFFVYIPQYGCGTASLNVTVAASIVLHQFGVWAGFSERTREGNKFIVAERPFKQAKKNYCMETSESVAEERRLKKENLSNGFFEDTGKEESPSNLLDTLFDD

Compound: C[S+](CC[C@H](N)C(=O)O)C[C@H]1O[C@@H](n2cnc3c(N)ncnc32)[C@H](O)[C@@H]1O (stereo partly shown) [SAM]
- coupled colorimetric SAM methyltransferase assay (SAH production, 510 nm): production of SAH in SAM-dependent methylation reactions
